From patent publication EP4745137A1 (Gluetacs Therapeutics (Shanghai) Co., Ltd., priority 2023, dated 2025)

Tests used:
Type in all cases: cell-based
Details in all cases: 24 hours of compound treatment
[1] = target: T1, CK1α (Homo sapiens, UniProt P48729+Q96SW2); assay: Western-blot assay of substrate protein degradation in hPBMCs, CK1α
T1 construct: endogenous in cells; host or cells: hPBMCs (Milecell Biotechnologies)

[2] = target: T2, IKZF3 (Homo sapiens, UniProt Q96SW2+Q9UKT9); assay: Western-blot assay of substrate protein degradation in hPBMCs, IKZF3
T2 construct: endogenous in cells; host or cells: hPBMCs (Milecell Biotechnologies)

[3] = target: T3, GSPT1 (Homo sapiens, UniProt P15170+Q96SW2); assay: Western-blot assay of substrate protein degradation in hPBMCs, GSPT1
T3 construct: endogenous in cells; host or cells: hPBMCs (Milecell Biotechnologies)

[4] = target: T4, IKZF2 (Homo sapiens, UniProt Q96SW2+Q9UKS7); assay: Western-blot assay of substrate protein degradation in hPBMCs, IKZF2
T4 construct: endogenous in cells; host or cells: hPBMCs (Milecell Biotechnologies)

[5] = target: T5, IKZF1 (Homo sapiens, UniProt Q13422+Q96SW2); assay: Western-blot assay of substrate protein degradation in hPBMCs, IKZF1
T5 construct: endogenous in cells; host or cells: hPBMCs (Milecell Biotechnologies)

[6] = target: T6, WEE1 (Homo sapiens, UniProt P30291+Q96SW2); assay: Western-blot assay of substrate protein degradation in hPBMCs, WEE1
T6 construct: endogenous in cells; host or cells: hPBMCs (Milecell Biotechnologies)

[7] = compounds tested at 50 nM and 500 nM (concentration of the table not stated)
[8] = 50 nM and 500 nM tested (concentration behind the class not stated)

T1 sequence (P48729 whole entry): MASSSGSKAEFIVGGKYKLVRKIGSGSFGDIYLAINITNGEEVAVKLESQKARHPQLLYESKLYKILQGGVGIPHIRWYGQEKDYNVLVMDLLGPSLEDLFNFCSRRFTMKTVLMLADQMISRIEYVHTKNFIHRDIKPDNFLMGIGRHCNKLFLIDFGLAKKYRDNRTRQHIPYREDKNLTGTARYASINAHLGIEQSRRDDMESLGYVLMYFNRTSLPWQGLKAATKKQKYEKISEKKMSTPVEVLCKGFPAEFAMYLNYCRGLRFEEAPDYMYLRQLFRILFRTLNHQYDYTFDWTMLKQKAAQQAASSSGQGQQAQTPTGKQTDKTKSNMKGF
T1 sequence (Q96SW2 whole entry): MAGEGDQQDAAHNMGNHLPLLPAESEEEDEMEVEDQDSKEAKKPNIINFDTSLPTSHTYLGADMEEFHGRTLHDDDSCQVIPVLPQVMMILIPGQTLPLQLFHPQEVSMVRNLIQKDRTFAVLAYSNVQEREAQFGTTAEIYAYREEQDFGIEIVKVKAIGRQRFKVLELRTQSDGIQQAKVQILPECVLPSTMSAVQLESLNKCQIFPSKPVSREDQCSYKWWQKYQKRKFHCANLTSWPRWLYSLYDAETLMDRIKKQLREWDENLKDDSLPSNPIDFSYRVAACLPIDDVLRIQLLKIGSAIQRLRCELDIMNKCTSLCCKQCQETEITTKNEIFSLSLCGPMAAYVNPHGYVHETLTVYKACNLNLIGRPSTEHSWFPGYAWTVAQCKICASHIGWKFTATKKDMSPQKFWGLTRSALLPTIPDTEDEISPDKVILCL
T1 sequence (Q16531 whole entry partner): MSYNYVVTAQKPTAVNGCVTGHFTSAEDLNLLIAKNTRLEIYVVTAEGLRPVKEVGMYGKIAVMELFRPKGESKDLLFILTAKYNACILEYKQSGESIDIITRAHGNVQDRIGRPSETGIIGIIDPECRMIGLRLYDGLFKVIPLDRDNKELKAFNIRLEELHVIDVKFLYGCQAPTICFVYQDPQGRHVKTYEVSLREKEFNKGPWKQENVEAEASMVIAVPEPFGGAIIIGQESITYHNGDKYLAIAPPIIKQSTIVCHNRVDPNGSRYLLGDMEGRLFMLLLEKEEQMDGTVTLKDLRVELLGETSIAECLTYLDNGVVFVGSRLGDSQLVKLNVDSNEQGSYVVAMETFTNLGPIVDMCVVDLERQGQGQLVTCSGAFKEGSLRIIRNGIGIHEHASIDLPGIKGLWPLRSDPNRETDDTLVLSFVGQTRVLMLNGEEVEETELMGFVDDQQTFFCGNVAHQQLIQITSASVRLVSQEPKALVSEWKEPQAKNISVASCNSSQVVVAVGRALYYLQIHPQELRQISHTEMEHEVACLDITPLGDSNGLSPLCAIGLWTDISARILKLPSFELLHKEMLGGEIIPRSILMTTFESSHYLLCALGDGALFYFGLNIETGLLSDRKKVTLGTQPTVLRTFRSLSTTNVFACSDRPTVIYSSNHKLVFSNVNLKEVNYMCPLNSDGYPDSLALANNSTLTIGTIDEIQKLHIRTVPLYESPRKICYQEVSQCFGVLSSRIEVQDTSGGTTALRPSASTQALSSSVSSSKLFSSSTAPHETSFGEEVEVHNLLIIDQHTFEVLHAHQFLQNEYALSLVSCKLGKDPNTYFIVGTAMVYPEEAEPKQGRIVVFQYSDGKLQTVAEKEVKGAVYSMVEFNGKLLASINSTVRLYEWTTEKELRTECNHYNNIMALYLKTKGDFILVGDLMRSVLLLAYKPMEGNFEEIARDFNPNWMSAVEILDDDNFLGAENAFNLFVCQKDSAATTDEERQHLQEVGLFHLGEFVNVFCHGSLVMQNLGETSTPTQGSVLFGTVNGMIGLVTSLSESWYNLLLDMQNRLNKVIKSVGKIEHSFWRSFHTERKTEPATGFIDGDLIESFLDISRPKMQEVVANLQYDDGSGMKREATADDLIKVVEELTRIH
T2 sequence (Q9UKT9 whole entry): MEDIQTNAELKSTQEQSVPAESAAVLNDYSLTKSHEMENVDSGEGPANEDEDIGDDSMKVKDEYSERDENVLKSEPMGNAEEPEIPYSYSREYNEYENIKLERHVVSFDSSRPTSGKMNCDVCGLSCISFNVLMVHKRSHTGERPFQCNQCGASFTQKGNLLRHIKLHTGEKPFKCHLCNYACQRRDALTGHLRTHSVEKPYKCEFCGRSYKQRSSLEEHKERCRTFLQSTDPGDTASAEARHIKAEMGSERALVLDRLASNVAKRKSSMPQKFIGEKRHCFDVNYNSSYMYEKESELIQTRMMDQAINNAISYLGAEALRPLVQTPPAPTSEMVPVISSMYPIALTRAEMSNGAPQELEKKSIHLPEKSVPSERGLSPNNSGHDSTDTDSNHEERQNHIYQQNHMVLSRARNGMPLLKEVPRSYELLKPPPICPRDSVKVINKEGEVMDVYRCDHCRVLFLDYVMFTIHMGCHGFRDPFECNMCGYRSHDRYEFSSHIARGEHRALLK
T2 sequence (Q96SW2 whole entry): as the sequence (Q96SW2 whole entry) above
T2 sequence (Q16531 whole entry partner): as the sequence (Q16531 whole entry partner) above
T3 sequence (P15170 whole entry): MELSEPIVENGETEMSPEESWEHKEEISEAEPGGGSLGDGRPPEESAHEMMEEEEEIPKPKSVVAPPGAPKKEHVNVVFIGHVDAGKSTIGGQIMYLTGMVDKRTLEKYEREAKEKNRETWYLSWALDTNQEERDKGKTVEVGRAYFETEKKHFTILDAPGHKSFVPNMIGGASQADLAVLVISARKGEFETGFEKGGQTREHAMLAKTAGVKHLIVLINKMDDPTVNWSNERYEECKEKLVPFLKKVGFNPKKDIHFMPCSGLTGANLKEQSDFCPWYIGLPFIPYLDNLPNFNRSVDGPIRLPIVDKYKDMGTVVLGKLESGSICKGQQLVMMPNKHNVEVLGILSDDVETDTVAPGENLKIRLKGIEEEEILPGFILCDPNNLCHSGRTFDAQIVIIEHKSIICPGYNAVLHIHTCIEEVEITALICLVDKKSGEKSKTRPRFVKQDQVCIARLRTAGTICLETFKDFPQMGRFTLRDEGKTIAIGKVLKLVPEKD
T3 sequence (Q96SW2 whole entry): as the sequence (Q96SW2 whole entry) above
T3 sequence (Q16531 whole entry partner): as the sequence (Q16531 whole entry partner) above
T5 sequence (Q13422 whole entry): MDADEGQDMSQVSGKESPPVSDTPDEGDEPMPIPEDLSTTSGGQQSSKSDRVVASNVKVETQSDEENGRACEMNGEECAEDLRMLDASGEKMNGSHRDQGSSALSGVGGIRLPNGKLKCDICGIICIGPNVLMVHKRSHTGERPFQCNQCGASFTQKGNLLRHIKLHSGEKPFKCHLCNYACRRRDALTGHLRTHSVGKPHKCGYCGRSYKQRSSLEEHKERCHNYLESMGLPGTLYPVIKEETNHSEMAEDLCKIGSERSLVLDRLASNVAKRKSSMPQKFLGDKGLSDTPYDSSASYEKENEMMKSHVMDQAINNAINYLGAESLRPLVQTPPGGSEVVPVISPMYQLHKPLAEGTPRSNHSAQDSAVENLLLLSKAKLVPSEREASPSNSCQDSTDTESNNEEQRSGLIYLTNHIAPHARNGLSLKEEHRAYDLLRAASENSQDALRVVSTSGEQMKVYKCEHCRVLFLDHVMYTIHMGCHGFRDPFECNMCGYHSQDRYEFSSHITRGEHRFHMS
T5 sequence (Q96SW2 whole entry): as the sequence (Q96SW2 whole entry) above
T5 sequence (Q16531 whole entry partner): as the sequence (Q16531 whole entry partner) above
T6 sequence (P30291 whole entry): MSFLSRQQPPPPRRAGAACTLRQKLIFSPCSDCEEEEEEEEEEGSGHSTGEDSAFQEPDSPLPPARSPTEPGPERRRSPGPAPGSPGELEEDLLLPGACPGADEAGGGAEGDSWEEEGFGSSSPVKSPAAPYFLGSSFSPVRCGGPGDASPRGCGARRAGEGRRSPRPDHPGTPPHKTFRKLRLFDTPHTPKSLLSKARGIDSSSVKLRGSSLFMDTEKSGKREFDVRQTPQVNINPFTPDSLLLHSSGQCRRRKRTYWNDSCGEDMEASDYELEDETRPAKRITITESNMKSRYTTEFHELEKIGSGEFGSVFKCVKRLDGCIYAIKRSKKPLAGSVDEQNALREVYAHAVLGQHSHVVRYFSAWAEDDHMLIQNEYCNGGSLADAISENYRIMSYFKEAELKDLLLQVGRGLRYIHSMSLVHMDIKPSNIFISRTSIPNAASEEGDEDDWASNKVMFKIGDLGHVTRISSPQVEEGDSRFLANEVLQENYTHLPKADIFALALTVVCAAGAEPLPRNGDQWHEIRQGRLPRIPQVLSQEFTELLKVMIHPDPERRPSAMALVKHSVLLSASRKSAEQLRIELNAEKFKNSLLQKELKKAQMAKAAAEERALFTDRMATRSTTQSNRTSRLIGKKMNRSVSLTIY
T6 sequence (Q96SW2 whole entry): as the sequence (Q96SW2 whole entry) above
T6 sequence (Q16531 whole entry partner): as the sequence (Q16531 whole entry partner) above

| Structure (SMILES) | CK1a substrate protein remaining % [1, 7] | IKZF3 substrate protein remaining % [2, 7] | GSPT1 substrate protein remaining % [3, 7] | IKZF2 substrate protein remaining % [4, 7] | IKZF 1 substrate protein remaining % [5, 7] | Weel substrate protein remaining % [6, 7] | CK1a substrate protein remaining % [1, 8] | IKZF3 substrate protein remaining % [2, 8] | GSPT1 substrate protein remaining % [3, 8] | IKZF2 substrate protein remaining % [4, 8] | IKZF 1 substrate protein remaining % [5, 8] | Weel substrate protein remaining % [6, 8] |
| --- | --- | --- | --- | --- | --- | --- | --- | --- | --- | --- | --- | --- |
| O=C1CCC(N2C(=O)c3ccc(CN4CC=C(c5cccc6cnccc56)CC4)cc3C2=O)C(=O)N1 (stereo not drawn) [GT-06268, 2-(2,6-dioxopiperidin-3-yl)-5-((4-(isoquinolin-5-yl)-3,6-dihydropyridin-1(2H)-yl)methyl)isoindoline-1,3-dione] | A (0% ≤ substrate protein remaining % ≤ 80%) | A (0% ≤ substrate protein remaining % ≤ 80%) | A (0% ≤ substrate protein remaining % ≤ 80%) | A (0% ≤ substrate protein remaining % ≤ 80%) | B (80%< substrate protein remaining %≤ 100%) | A (0% ≤ substrate protein remaining % ≤ 80%) |  |  |  |  |  |  |
| O=C1CCC(N2C(=O)c3ccc(CN4CCN(c5nsc6ccccc56)CC4)cc3C2=O)C(=O)N1 (stereo not drawn) [GT-06763, 5-((4-(benzo[d]isothiazol-3-yl)piperazin-1-yl)methyl)-2-(2,6-dioxopiperidin-3-yl)isoindoline-1,3-dione] |  |  |  |  |  |  | A (0% ≤ substrate protein remaining % ≤ 80%) | B (80%< substrate protein remaining %≤ 100%) | A (0% ≤ substrate protein remaining % ≤ 80%) | B (80%< substrate protein remaining %≤ 100%) | A (0% ≤ substrate protein remaining % ≤ 80%) | A (0% ≤ substrate protein remaining % ≤ 80%) |
| O=C1CCC(N2C(=O)c3ccc(CN4CC(C5CCOc6cc(F)ccc65)C4)cc3C2=O)C(=O)N1 (stereo not drawn) [GT-06269, 2-(2,6-dioxopiperidin-3-yl)-5-((3-(7-fluorochroman-4-yl)azetidin-1-yl)methyl)isoindoline-1,3-dione] | B (80%< substrate protein remaining %≤ 100%) | A (0% ≤ substrate protein remaining % ≤ 80%) | A (0% ≤ substrate protein remaining % ≤ 80%) | A (0% ≤ substrate protein remaining % ≤ 80%) | B (80%< substrate protein remaining %≤ 100%) | B (80%< substrate protein remaining %≤ 100%) |  |  |  |  |  |  |
| O=C1CCC(N2C(=O)c3ccc(CN4CCN(c5ccc(C(F)(F)F)cc5)CC4)cc3C2=O)C(=O)N1 (stereo not drawn) [GT-06290, 2-(2,6-dioxopiperidin-3-yl)-5-((4-(4-(trifluoromethyl)phenyl)piperazin-1-yl)methyl)isoindoline-1,3-dione] |  |  |  |  |  |  | B (80%< substrate protein remaining %≤ 100%) | B (80%< substrate protein remaining %≤ 100%) | A (0% ≤ substrate protein remaining % ≤ 80%) | B (80%< substrate protein remaining %≤ 100%) | B (80%< substrate protein remaining %≤ 100%) | B (80%< substrate protein remaining %≤ 100%) |
| O=C1CCC(N2C(=O)c3ccc(CN4CCN(c5c(Cl)cccc5Cl)CC4)cc3C2=O)C(=O)N1 (stereo not drawn) [GT-06297, 5-((4-(2,6-dichlorophenyl)piperazin-1-yl)methyl)-2-(2,6-dioxopiperidin-3-yl)isoindoline-1,3-dione] |  |  |  |  |  |  | B (80%< substrate protein remaining %≤ 100%) | B (80%< substrate protein remaining %≤ 100%) | A (0% ≤ substrate protein remaining % ≤ 80%) | B (80%< substrate protein remaining %≤ 100%) | B (80%< substrate protein remaining %≤ 100%) | B (80%< substrate protein remaining %≤ 100%) |
| O=C1CCC(N2C(=O)c3ccc(CN4CCN(c5ccc(Cl)cc5Cl)CC4)cc3C2=O)C(=O)N1 (stereo not drawn) [GT-06355, 5-((4-(2,4-dichlorophenyl)piperazin-1-yl)methyl)-2-(2,6-dioxopiperidin-3-yl)isoindoline-1,3-dione] |  |  |  |  |  |  | B (80%< substrate protein remaining %≤ 100%) | B (80%< substrate protein remaining %≤ 100%) | A (0% ≤ substrate protein remaining % ≤ 80%) | B (80%< substrate protein remaining %≤ 100%) | B (80%< substrate protein remaining %≤ 100%) | B (80%< substrate protein remaining %≤ 100%) |
| O=C1CCC(N2C(=O)c3ccc(CN4CC(c5ccnc6cc(F)ccc56)C4)cc3C2=O)C(=O)N1 (stereo not drawn) [GT-06270, 2-(2,6-dioxopiperidin-3-yl)-5-((3-(7-fluoroquinolin-4-yl)azetidin-1-yl)methyl)isoindoline-1,3-dione] |  |  |  |  |  |  | B (80%< substrate protein remaining %≤ 100%) | B (80%< substrate protein remaining %≤ 100%) | A (0% ≤ substrate protein remaining % ≤ 80%) | B (80%< substrate protein remaining %≤ 100%) | B (80%< substrate protein remaining %≤ 100%) | B (80%< substrate protein remaining %≤ 100%) |
| O=C1CCC(N2C(=O)c3ccc(CN4CCN(c5nc(Cl)nc6c5SCC6)CC4)cc3C2=O)C(=O)N1 (stereo not drawn) [GT-06710, 5-((4-(2-chloro-6,7-dihydrothieno[3,2-d]pyrimidin-4-yl)piperazin-1-yl)methyl)-2-(2,6-dioxopiperidin-3-yl)isoindoline-1,3-dione] |  |  |  |  |  |  | B (80%< substrate protein remaining %≤ 100%) | B (80%< substrate protein remaining %≤ 100%) | A (0% ≤ substrate protein remaining % ≤ 80%) | A (0% ≤ substrate protein remaining % ≤ 80%) | B (80%< substrate protein remaining %≤ 100%) | B (80%< substrate protein remaining %≤ 100%) |
| O=C1CCC(N2C(=O)c3ccc(CN4CCC(c5ccco5)CC4)cc3C2=O)C(=O)N1 (stereo not drawn) [GT-06284, 2-(2,6-dioxopiperidin-3-yl)-5-((4-(furan-2-yl)piperidin-1-yl)methyl)isoindoline-1,3-dione] |  |  |  |  |  |  | B (80%< substrate protein remaining %≤ 100%) | B (80%< substrate protein remaining %≤ 100%) | A (0% ≤ substrate protein remaining % ≤ 80%) | B (80%< substrate protein remaining %≤ 100%) | B (80%< substrate protein remaining %≤ 100%) | B (80%< substrate protein remaining %≤ 100%) |
| O=C1CCC(N2C(=O)c3ccc(CN4CCN(c5cc(Cl)ccn5)CC4)cc3C2=O)C(=O)N1 (stereo not drawn) [GT-06525, 5-((4-(4-chloropyridin-2-yl)piperazin-1-yl)methyl)-2-(2,6-dioxopiperidin-3-yl)isoindoline-1,3-dione] |  |  |  |  |  |  | B (80%< substrate protein remaining %≤ 100%) | A (0% ≤ substrate protein remaining % ≤ 80%) | A (0% ≤ substrate protein remaining % ≤ 80%) | A (0% ≤ substrate protein remaining % ≤ 80%) | B (80%< substrate protein remaining %≤ 100%) | A (0% ≤ substrate protein remaining % ≤ 80%) |
| O=C1CCC(N2C(=O)c3ccc(CN4CCC(c5ncnc6sccc56)CC4)cc3C2=O)C(=O)N1 (stereo not drawn) [GT-06591, 2-(2,6-dioxopiperidin-3-yl)-5-((4-(thieno[2,3-d]pyrimidin-4-yl)piperidin-1-yl)methyl)isoindoline-1,3-dione] |  |  |  |  |  |  | B (80%< substrate protein remaining %≤ 100%) | B (80%< substrate protein remaining %≤ 100%) | A (0% ≤ substrate protein remaining % ≤ 80%) | B (80%< substrate protein remaining %≤ 100%) | B (80%< substrate protein remaining %≤ 100%) | A (0% ≤ substrate protein remaining % ≤ 80%) |
| O=C1CCC(N2C(=O)c3ccc(CN4CCC(c5ccccc5)CC4)cc3C2=O)C(=O)N1 (stereo not drawn) [GT-06368, 2-(2,6-dioxopiperidin-3-yl)-5-((4-phenylpiperidin-1-yl)methyl)isoindoline-1,3-dione] |  |  |  |  |  |  | A (0% ≤ substrate protein remaining % ≤ 80%) | A (0% ≤ substrate protein remaining % ≤ 80%) | A (0% ≤ substrate protein remaining % ≤ 80%) | A (0% ≤ substrate protein remaining % ≤ 80%) | B (80%< substrate protein remaining %≤ 100%) | A (0% ≤ substrate protein remaining % ≤ 80%) |
